Measurements published in patent US6559280B2, “Controlling protein levels in eucaryotic organisms” (Proteinix, Inc., priority 1999, dated 2003).
Non-standard residues stand in square brackets, D forms with d. No end group written: not given here. Ahx = NCCCCCC(=O)O

Experiments:
[1] = tested on: E2 ubiquitination reaction; settings: patent application GB 2,320,570; cited from earlier work
[2] = tested on: [125I]-lysozyme degradation in the reticulocyte lysate; assay: inhibition of [125I]-lysozyme degradation in reticulocyte lysate by ubiquitination recognition elements; type: biochemical, rabbit; settings: for lysozyme degradation, result at the 2 hour time point: no treatment 12,475 cpm
Method: Proteins were labeled by Lofstrand Laboratories Ltd. (Gaithersburg, Md.) Labeled to […] by oxidation of Na^125I using an iodobead chloramine-T procedure. The ubiquitin-dependent protein degradation assay was preformed by the addition of 70 μL of rabbit reticulocyte lysate and 5 uL of 0.06 μCi/μL ^25I-labeled protein to […] of reaction buffer containing 40 mM Tris pH 7.6, 2 mM DTT, 5 mM MgCl2, 0.5 mM ATP, 35 μg creatine phosphokinase (Sigma) and 10 mM phosphocreatine. The reaction were run at 37 C. in a heating block, and at time points 30 μL of the reaction was transferred to 50 μl of cold 100 mg/mL BSA and protein was precipitated by the addition of 420 μL of 23% TCA followed by 15 min on ice. The precipitated samples were microfuged for 2 min at 5000 rpm and 300 μL of supernatant was then counted for TCA-soluble ^125I on a gamma counter (Hidex).
In order to determine if a given molecule or molecular element is potentially valuable as a ubiquitination recognition element the assay described above is run with [^125I]-lysozyme or other labeled protein substrates in the presence of potential ubiquitination recognition elements.
The results at the 2 hour time point were 12,475 cpm for no treatment, 6,486 cpm for the 2 mM Arg-εAhx-Cys treatment and 3,592 cpm for the 5 mM Phe-εAhx-Cys treatment.

Row | Molecule | inhibition of an E2 ubiquitination reaction [1] | effect on lysozyme degradation in the reticulocyte lysate [2] | lysozyme degradation, result at the 2 hour time point ([2]; 2 mM treatment) | lysozyme degradation, result at the 2 hour time point ([2]; 5 mM treatment)
1 | O=S(=O)(O)c1cc(Nc2nc(Cl)nc(Nc3ccc(Cl)c(Nc4nc(Cl)nc(Nc5cc(S(=O)(=O)O)cc6cc(S(=O)(=O)O)c(N=Nc7ccc8ccccc8c7S(=O)(=O)O)c(O)c56)n4)c3)n2)c2c(O)c(N=Nc3ccc4ccccc4c3S(=O)(=O)O)c(S(=O)(=O)O)cc2c1 [compound Z, 1-chloro-2,4-bis{4-[2-chloro-6-(5-(2,7-disulfo-4-hydroxy-3-(2-(1-sulfonaphthyl)azo)naphthyl)amino)-1,3,5-triazinyl]amino}benzene] | inhibited an E2 ubiquitination reaction | – | – | –
2 | Arg-εAhx-Cys (Arg-[Ahx]-Cys) [ubiquitination recognition element, Type I recognition with caproic acid linker and C-terminal Cys] | – | inhibition of the lysozyme degradation | 6,486 cpm | –
3 | Phe-εAhx-Cys (Phe-[Ahx]-Cys) [ubiquitination recognition element, Type II recognition with caproic acid linker and C-terminal Cys] | – | inhibition of the lysozyme degradation | – | 3,592 cpm
